Laboratory results published in the supplement of paper PMC7840683.
± gives the standard deviation of the averaged measurements.

Test system: HepaRG
Experiment: LDH release cytotoxicity, % of total lysis control; higher = more cytotoxic
Settings: 48 h
Outline: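 HepaRG cells from a single lot were plated on collagen I-coated 96-well plates and treated in duplicate for 48 h with eight-point half-log series of test chemicals, starting at 100 µM, in serum-free induction medium containing 0.5% DMSO. Total lysis wells were given 0.1% Triton X. LDH released into 50 µL of spent medium was measured as resorufin fluorescence with CytoTox-ONE on a Tecan Safire. Percent cytotoxicity was normalized to on-plate vehicle and total lysis controls and then averaged across duplicates.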

Structure (SMILES): CC(C)COC(=O)CCCCC(=O)OCC(C)C [Diisobutyl adipate]
- LDH release cytotoxicity (0.03162 µM): -1.813 ± 0.015%
- LDH release cytotoxicity (0.1 µM): -2.01 ± 0.88%
- LDH release cytotoxicity (0.3162278 µM): -0.902 ± 0.055%
- LDH release cytotoxicity (1 µM): -2.26 ± 0.4%
- LDH release cytotoxicity (3.16228 µM): -2.38 ± 0.66%
- LDH release cytotoxicity (10 µM): -0.129 ± 0.52%
- LDH release cytotoxicity (31.6228 µM): 7.28 ± 1%
- LDH release cytotoxicity (100 µM): 46.4 ± 4.1%

Structure (SMILES): CCCC1COC(Cn2cncn2)(c2ccc(Cl)cc2Cl)O1 (configuration not stated) [Propiconazole]
- LDH release cytotoxicity (0.03162 µM): -1.15 ± 0.41%
- LDH release cytotoxicity (0.1 µM): -1.4 ± 0.43%
- LDH release cytotoxicity (0.3162278 µM): -1.43 ± 0.71%
- LDH release cytotoxicity (1 µM): -0.956 ± 0.14%
- LDH release cytotoxicity (3.16228 µM): -0.902 ± 0.17%
- LDH release cytotoxicity (10 µM): -0.927 ± 1%
- LDH release cytotoxicity (31.6228 µM): 12.7 ± 3.1%
- LDH release cytotoxicity (100 µM): 26.8 ± 4%

Structure (SMILES): CCCCOC(=O)c1ccccc1C(=O)O [Monobutyl phthalate]
- LDH release cytotoxicity (0.03162 µM): -2.25 ± 1%
- LDH release cytotoxicity (0.1 µM): -2.21 ± 0.79%
- LDH release cytotoxicity (0.3162278 µM): -2.76 ± 0.98%
- LDH release cytotoxicity (1 µM): -3.09 ± 0.93%
- LDH release cytotoxicity (3.16228 µM): -2.68 ± 1.3%
- LDH release cytotoxicity (10 µM): -2.9 ± 1.1%
- LDH release cytotoxicity (31.6228 µM): -2.43 ± 1.4%
- LDH release cytotoxicity (100 µM): -0.95 ± 1.3%

Structure (SMILES): Cc1cccc(C)c1N [2,6-Dimethylaniline]
- LDH release cytotoxicity (0.03162 µM): -1.3 ± 1.2%
- LDH release cytotoxicity (0.1 µM): -0.274 ± 0.54%
- LDH release cytotoxicity (0.3162278 µM): -0.695 ± 1.3%
- LDH release cytotoxicity (1 µM): -2 ± 0.2%
- LDH release cytotoxicity (3.16228 µM): -1.29 ± 0.67%
- LDH release cytotoxicity (10 µM): -1.03 ± 0.33%
- LDH release cytotoxicity (31.6228 µM): -0.842 ± 0.55%
- LDH release cytotoxicity (100 µM): 3.28 ± 2.6%

Structure (SMILES): CC12CCC3c4ccc(O)cc4CC(CCCCCCCCCS(=O)CCCC(F)(F)C(F)(F)F)C3C1CCC2O (configuration not stated) [Fulvestrant]
- LDH release cytotoxicity (0.03162 µM): -1.87 ± 0.22%
- LDH release cytotoxicity (0.1 µM): -1.62 ± 0.93%
- LDH release cytotoxicity (0.3162278 µM): -0.633 ± 0.4%
- LDH release cytotoxicity (1 µM): -1.01 ± 0.37%
- LDH release cytotoxicity (3.16228 µM): -1.1 ± 0.47%
- LDH release cytotoxicity (10 µM): -0.0401 ± 1.7%
- LDH release cytotoxicity (31.6228 µM): -3.17 ± 0.35%
- LDH release cytotoxicity (100 µM): 3.92 ± 6.4%

Structure (SMILES): O=C(NC(=O)c1c(F)cccc1F)Nc1cc(Cl)c(OC(F)(F)C(F)F)c(Cl)c1 [Hexaflumuron]
- LDH release cytotoxicity (0.03162 µM): -0.197 ± 0.083%
- LDH release cytotoxicity (0.1 µM): -1 ± 0.078%
- LDH release cytotoxicity (0.3162278 µM): -1.85 ± 0.34%
- LDH release cytotoxicity (1 µM): -1.29 ± 1.2%
- LDH release cytotoxicity (3.16228 µM): -1.24 ± 0.28%
- LDH release cytotoxicity (10 µM): -0.349 ± 0.16%
- LDH release cytotoxicity (31.6228 µM): -0.129 ± 0.31%
- LDH release cytotoxicity (100 µM): 4.86 ± 1.1%

Structure (SMILES): Cc1ccc(N)cc1O [5-Amino-2-methylphenol]
- LDH release cytotoxicity (0.03162 µM): -0.861 ± 0.26%
- LDH release cytotoxicity (0.1 µM): -1.2 ± 1.2%
- LDH release cytotoxicity (0.3162278 µM): -0.469 ± 1.2%
- LDH release cytotoxicity (1 µM): -1.04 ± 0.78%
- LDH release cytotoxicity (3.16228 µM): -0.613 ± 0.33%
- LDH release cytotoxicity (10 µM): -0.636 ± 0.094%
- LDH release cytotoxicity (31.6228 µM): -0.124 ± 0.049%
- LDH release cytotoxicity (100 µM): 0.121 ± 0.6%

Structure (SMILES): Cc1ccc(O)c(C)c1 [2,4-Dimethylphenol]
- LDH release cytotoxicity (0.03162 µM): -0.236 ± 0.8%
- LDH release cytotoxicity (0.1 µM): -1.06 ± 0.065%
- LDH release cytotoxicity (0.3162278 µM): -0.554 ± 0.3%
- LDH release cytotoxicity (1 µM): -0.084 ± 0.78%
- LDH release cytotoxicity (3.16228 µM): 0.0582 ± 0.56%
- LDH release cytotoxicity (10 µM): -0.172 ± 0.66%
- LDH release cytotoxicity (31.6228 µM): -0.59 ± 0.59%
- LDH release cytotoxicity (100 µM): -0.251 ± 0.47%

Structure (SMILES): CCCCCOC(=O)c1ccccc1C(=O)OCCCCC [Dipentyl phthalate]
- LDH release cytotoxicity (0.03162 µM): -0.338 ± 1.3%
- LDH release cytotoxicity (0.1 µM): -1.03 ± 0.79%
- LDH release cytotoxicity (0.3162278 µM): -1.76 ± 0.55%
- LDH release cytotoxicity (1 µM): -0.0572 ± 0.49%
- LDH release cytotoxicity (3.16228 µM): 10.4 ± 0.42%
- LDH release cytotoxicity (10 µM): 55.1 ± 3.3%
- LDH release cytotoxicity (31.6228 µM): 47.6 ± 0.78%
- LDH release cytotoxicity (100 µM): 43.3 ± 0.68%
